Where two headings read alike, the source gives them in different places.
Experiments:
[1] = tested on: E. coli LY01; conditions: starting pH of 6.0, acid at the IC50 obtained at a neutral pH; cited from earlier work
[2] = tested on: pBTL-1 Control (blank vector) culture; experiment: Aerobic growth (specific growth, final OD600) in MOPS minimal media with inhibitor, control; assay type: cell-based, E. coli; conditions: for Specific Growth: n=3
Experimental: (§1) Certain experiments described herein were performed in E. coli BW25113 recA-, with the kanamycin resistance gene removed.
(§2) Cultures were grown in 10 ml MOPS minimal media, 100 μg carbenicillin/ml, and either 1 g furfural/1 supplemented, 2 g HMF/1, or 4 g acetate/1, in 15 ml conical tubes at 37° C. The optical density of 1 ml culture was measured with a spectrophotometer at 600 nm. A natural log transformation of the data was then calculated and then a regression line was fit to the data to calculate specific growth, which is […] to the culture doubling time. The blank vector, pBTL-1, served as the control. The lpcA gene was cloned into the pBTL-1 using standard cloning techniques and primers designed to amplify the gene from template DNA.

[3] = tested on: pBTL-1 lpcA culture; assay type: cell-based, E. coli; conditions: for Specific Growth: n=3
Experimental: as §1, §2

[4] = tested on: membrane integrity; conditions: cited from earlier work
[5] = tested on: bacterial cultures; conditions: amino acid 10 mM, acetic acid 2.5 g/L, MOPS minimal medium, FIG. 4
Experimental: In another exemplary method, amino acid supplementation of cultures was observed and illustrated by histogram plot. Overnight cultures were prepared from freezer stocks. Stationary phase overnight cultures were used for a 2.5% inoculation of 5 mL MOPS minimal medium plus carbenicillin. The OD600 was monitored until the culture reached an OD600=0.2. […] Amino acid supplementation was done by preparing stock solutions of amino acids and supplementing the media to a final concentration of 10 mM. Cultures were incubated at 37° C. and were shaken at 225 rpm. OD600 was monitored over the course of exponential growth and final measurements were taken after 24 hours. Specific growth rate was calculated by linear regression on the natural logarithm of the exponential phase OD600 over time.

[6] = tested on: BW25113 ArecA cells transformed with the blank pBTL-1 vector; assay type: cell-based, E. coli; conditions: control cells
Experimental: (§3) FIGS. 17A-17B represent methods of identification of a gene related to restoring tolerance. Multiple genome-wide SCALE selection was performed in the presence of ethanol, furfural and acetate respectively. The data set obtained for each compound was compared to the others. Alleles enriched in all cases were identified. […] To restore tolerance, overexpression of identified genes in bacterial cells was performed. For example, lpcA ORF was cloned into the pBTL-1 vector. BW25113 ArecA cells transformed with the blank pBTL-1 vector were used as a control. BW25113 ArecA cells overexpressing lpcA gene were referred to as pLPCA. Cells were inoculated at a standard cell density into MOPS minimal media, supplemented with furfural, acetate or ethanol. After 24 hours, growth of the cells was analyzed.
(§4) The indicated cells were grown in MOPS minimal media supplemented with glucose as a carbon source. Furfural was added to the media at the concentration of 1 g/L. Arabinose was added at 10 mM where indicated to gauge effect of AraC binding. The BW25113 araC::FRT-kan clone corresponds to JW0063, a BW25113 araC knockout mutant ordered from the Keio Collection directly. pBTL-1 represented the blank vector, and pLPCA referred to lpcA gene overexpression. […] To analyze the LPS level in the cells indicated in FIG. 19, LPS are extracted from the cells grown to exponential phase. Loading of LPS for the protein gel is normalized to the cell number. The gel is stained to visualize LPS protein bands after desired separation is obtained.
(§5) BW25113, MG1655, and derivatives were used where indicated. JW0063, an araC mutant of BW25113 was obtained from the Coli Genetic Stock Center (Yale). Overnight bacterial cultures were grown in Luria-Bertani medium with shaking. MOPS minimal medium (previously presented) with 0.2% glucose as a carbon source, was used for all seed cultures and growth studies. Seed cultures were inoculated at 2 v/v % from an overnight culture and were grown to mid-exponential phase. Growth cultures were inoculated with 10 v/v % seed cultures of an OD600 of 0.195-0.200 for an initial optical density of ˜0.02. Carbenicillin and kanamycin were used where appropriate at 100 μg/ml and 30 μg/ml, respectively. The pBTL-1 vector (previously described) was used as the control blank vector for all growth studies. Genome-wide furfural selection

[7] = tested on: BW25113 ArecA cells overexpressing lpcA gene (pLPCA); assay type: cell-based, E. coli; conditions: for OD600 at 24 hr: pLPCA cells
Experimental: as §3, §4, §5

[8] = tested on: E. coli; conditions: cited from earlier work
[9] = tested on: cell growth; conditions: concentrations as low as, cited from earlier work
[10] = tested on: E. coli MC1022; conditions: cited from earlier work
[11] = furfural vs. furfuryl alcohol; cited from earlier work
[12] = aerobic growth in 2 g/L hydroxymethyl furfural
[13] = aerobic growth in 4 g/L acetate

## O=CO [formic acid]
[1]
  growth rate, percent that of control growth: 35%

## O=Cc1ccc(CO)o1 [hydroxymethyl furfural, 5-(hydroxymethyl)-2-furaldehyde]
[2]; [12]
  Final OD600 (24 hr): 0.170
  Specific Growth: 0.045 h⁻¹
[3]; [12]
  Final OD600 (24 hr): 1.014
  Specific Growth: 0.234 h⁻¹

## O=C(O)c1ccco1 [2-furoic acid]
[4]
  membrane leakage: significant membrane leakage

## N=C(N)NCCC[C@H](N)C(=O)O [arginine]
[5]
  effect of amino acid supplementation on growth rate: greatest increase in growth rate

## CCO [ethanol]
[6]; 25 g/L of ethanol
  OD600 at 24 hr: 0.4
[7]; ethanol 25 g/l
  improvement of final optical density by pLPCA in BW25113: 37±3%
[7]; 25 g/L of ethanol
  OD600 at 24 hr: 1.0

## CC(=O)C=O [Methylgloxal]
[8]
  concentration inhibiting E. coli growth and protein synthesis: 0.07 g/L

## CC(=O)CCC(=O)O [levulinic acid]
[1]
  growth rate, percent that of control growth: 10%

## CC(=O)O [acetate, acetic acid]
[2]; [13]
  Final OD600 (24 hr): 0.111
  Specific Growth: 0.067 h⁻¹
[1]
  growth rate, percent that of control growth: 0%
[3]; [13]
  Final OD600 (24 hr): 0.324
  Specific Growth: 0.126 h⁻¹
[6]; 10 g/L of acetate
  OD600 at 24 hr: 0.75
[7]; acetate 5 g/l
  improvement of final optical density by pLPCA in BW25113: 47±4%
[7]; 10 g/L of acetate
  OD600 at 24 hr: 1.4
[9]
  concentration that retards growth: 0.5 g/L
[9]; minimal media
  acetate concentration shown to inhibit cell growth by 50%: 0.5 g/L

## COc1cc(C=O)ccc1O [vanillin, 4-hydroxy-3-methoxybenzaldehyde]
[10]; treatment for one hour at over three times the minimum inhibitory concentration
  share of the population with membrane destabilization: 29%
[10]; when grown overnight after treatment
  share of the population with membrane destabilization: 13%

## CSCC[C@H](N)C(=O)O [methionine]
[5]
  effect of amino acid supplementation on growth rate: greatest increase in growth rate

## OCc1ccco1 [furfuryl alcohol]
[4]
  membrane leakage: significant membrane leakage
[11]
  toxicity on a concentration basis: ~20 g/L
